Measured values as given in patent US8598365B2, “Herbicides” (Syngenta Limited, priority 2007, dated 2013).

Each compound was assayed on Alopecurus myosuroides (ALOMY) (assay: Example B pre-emergence herbicidal activity). Conditions: 312 h, rate 250 g/ha, evaluated after 13 days, read-out: Pre-Emergence Activity ALOMY (100=total damage to plant; 0=no damage to plant).
Assay type: in vivo
Procedure: (§1) Seeds of a variety of test species were sown in standard soil in pots. After cultivation for one day (pre-emergence) or after 8 days cultivation (post-emergence) under controlled conditions in a glasshouse (at 24/16° C., day/night; 14 hours light; 65% humidity), the plants were sprayed with an aqueous spray solution derived from the formulation of the technical active ingredient in acetone/water (50:50) solution containing 0.5% Tween 20 (polyoxyethelyene sorbitan monolaurate, CAS RN 9005-64-5).
(§2) The test plants were then grown in a glasshouse under controlled conditions in a glasshouse (at 24/16° C., day/night; 14 hours light; 65% humidity) and watered twice daily. After 13 days for pre and post-emergence, the test was evaluated (100=total damage to plant; 0=no damage to plant).
(§3) Alopecurus myosuroides (ALOMY), Avena fatua (AVEFA), Setaria faberi (SETFA), Echinochloa crus-galli (ECHCG), Solanum nigrum (SOLNI) and Amaranthus retoflexus (AMARE)

Structure (SMILES) | pest or weed control at 250 g/ha [%]
CCc1sc(-c2ccc(Br)cc2F)nc1C1C(=O)[C@@H]2CC[C@@H](C2)C1=O (stereo partly shown) [Compound T33] | 90
C=Cc1ccc(-c2nc(C3C(=O)[C@@H]4CC[C@@H](C4)C3=O)c(C)s2)cc1 (stereo partly shown) [Compound T78] | 0
Cc1cc(Br)ccc1-c1nc(C2=C(OC(=O)C(C)(C)C)[C@@H]3CC[C@@H](C3)C2=O)c(C)s1 [Compound P14] | 70
Cc1sc(-c2ccccc2)nc1C1C(=O)[C@@H]2CC[C@@H](C2)C1=O (stereo partly shown) [Compound T56] | 0

These compounds were tested on Amaranthus retoflexus (AMARE) (assay: Example B pre-emergence herbicidal activity). Conditions: Amaranthus retroflexus, 312 h, rate 250 g/ha, evaluated after 13 days, read-out: Pre-Emergence Activity AMARE (100=total damage to plant; 0=no damage to plant).
Assay type: in vivo
Procedure: as §1, §2, §3

Structure (SMILES) | pest or weed control at 250 g/ha [%]
CCc1sc(-c2ccc(Br)cc2F)nc1C1C(=O)[C@@H]2CC[C@@H](C2)C1=O (stereo partly shown) [Compound T33] | 0
C=Cc1ccc(-c2nc(C3C(=O)[C@@H]4CC[C@@H](C4)C3=O)c(C)s2)cc1 (stereo partly shown) [Compound T78] | 0
Cc1cc(Br)ccc1-c1nc(C2=C(OC(=O)C(C)(C)C)[C@@H]3CC[C@@H](C3)C2=O)c(C)s1 [Compound P14] | 0
Cc1sc(-c2ccccc2)nc1C1C(=O)[C@@H]2CC[C@@H](C2)C1=O (stereo partly shown) [Compound T56] | 0

What follows are compounds tested on Avena fatua (AVEFA) (assay: Example B pre-emergence herbicidal activity). Conditions: 312 h, rate 250 g/ha, evaluated after 13 days, read-out: Pre-Emergence Activity AVEFA (100=total damage to plant; 0=no damage to plant).
Assay type: in vivo
Procedure: as §1, §2, §3

Structure (SMILES) | pest or weed control at 250 g/ha [%]
CCc1sc(-c2ccc(Br)cc2F)nc1C1C(=O)[C@@H]2CC[C@@H](C2)C1=O (stereo partly shown) [Compound T33] | 50
C=Cc1ccc(-c2nc(C3C(=O)[C@@H]4CC[C@@H](C4)C3=O)c(C)s2)cc1 (stereo partly shown) [Compound T78] | 90
Cc1cc(Br)ccc1-c1nc(C2=C(OC(=O)C(C)(C)C)[C@@H]3CC[C@@H](C3)C2=O)c(C)s1 [Compound P14] | 100
Cc1sc(-c2ccccc2)nc1C1C(=O)[C@@H]2CC[C@@H](C2)C1=O (stereo partly shown) [Compound T56] | 0

Each compound was assayed on Echinochloa crus-galli (ECHCG) (assay: Example B pre-emergence herbicidal activity). Conditions: 312 h, rate 250 g/ha, evaluated after 13 days, read-out: Pre-Emergence Activity ECHCG (100=total damage to plant; 0=no damage to plant).
Assay type: in vivo
Procedure: as §1, §2, §3

Structure (SMILES) | pest or weed control at 250 g/ha [%]
CCc1sc(-c2ccc(Br)cc2F)nc1C1C(=O)[C@@H]2CC[C@@H](C2)C1=O (stereo partly shown) [Compound T33] | 100
C=Cc1ccc(-c2nc(C3C(=O)[C@@H]4CC[C@@H](C4)C3=O)c(C)s2)cc1 (stereo partly shown) [Compound T78] | 0
Cc1cc(Br)ccc1-c1nc(C2=C(OC(=O)C(C)(C)C)[C@@H]3CC[C@@H](C3)C2=O)c(C)s1 [Compound P14] | 100
Cc1sc(-c2ccccc2)nc1C1C(=O)[C@@H]2CC[C@@H](C2)C1=O (stereo partly shown) [Compound T56] | 40

These compounds were tested on Setaria faberi (SETFA) (assay: Example B pre-emergence herbicidal activity). Conditions: 312 h, rate 250 g/ha, evaluated after 13 days, read-out: Pre-Emergence Activity SETFA (100=total damage to plant; 0=no damage to plant).
Assay type: in vivo
Procedure: as §1, §2, §3

Structure (SMILES) | pest or weed control at 250 g/ha [%]
CCc1sc(-c2ccc(Br)cc2F)nc1C1C(=O)[C@@H]2CC[C@@H](C2)C1=O (stereo partly shown) [Compound T33] | 100
C=Cc1ccc(-c2nc(C3C(=O)[C@@H]4CC[C@@H](C4)C3=O)c(C)s2)cc1 (stereo partly shown) [Compound T78] | 0
Cc1cc(Br)ccc1-c1nc(C2=C(OC(=O)C(C)(C)C)[C@@H]3CC[C@@H](C3)C2=O)c(C)s1 [Compound P14] | 100
Cc1sc(-c2ccccc2)nc1C1C(=O)[C@@H]2CC[C@@H](C2)C1=O (stereo partly shown) [Compound T56] | 0

What follows are compounds tested on Alopecurus myosuroides (ALOMY) (assay: Example B post-emergence herbicidal activity). Conditions: 312 h, rate 250 g/ha, evaluated after 13 days, read-out: Post-emergence activity ALOMY (100=total damage to plant; 0=no damage to plant).
Assay type: in vivo
How it was run: (§4)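 Glasshouse pot test, 24/16 °C, 14 h light, 65% RH, watered twice daily. Spray timing: day 1 pre-em., day 8 post-em.; vehicle acetone/water 50:50 + 0.5% Tween 20. Readout 13 d, 0–100% damage.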

Structure (SMILES) | pest or weed control at 250 g/ha [%]
CCc1sc(-c2ccc(Br)cc2F)nc1C1C(=O)[C@@H]2CC[C@@H](C2)C1=O (stereo partly shown) [Compound T33] | 100
C=Cc1ccc(-c2nc(C3C(=O)[C@@H]4CC[C@@H](C4)C3=O)c(C)s2)cc1 (stereo partly shown) [Compound T78] | 60
Cc1cc(Br)ccc1-c1nc(C2=C(OC(=O)C(C)(C)C)[C@@H]3CC[C@@H](C3)C2=O)c(C)s1 [Compound P14] | 100
Cc1sc(-c2ccccc2)nc1C1C(=O)[C@@H]2CC[C@@H](C2)C1=O (stereo partly shown) [Compound T56] | 0

Each compound was assayed on Amaranthus retoflexus (AMARE) (assay: Example B post-emergence herbicidal activity). Conditions: Amaranthus retroflexus, 312 h, rate 250 g/ha, evaluated after 13 days, read-out: Post-emergence activity AMARE (100=total damage to plant; 0=no damage to plant).
Assay type: in vivo
How it was run: as §4

Structure (SMILES) | pest or weed control at 250 g/ha [%]
CCc1sc(-c2ccc(Br)cc2F)nc1C1C(=O)[C@@H]2CC[C@@H](C2)C1=O (stereo partly shown) [Compound T33] | 0
C=Cc1ccc(-c2nc(C3C(=O)[C@@H]4CC[C@@H](C4)C3=O)c(C)s2)cc1 (stereo partly shown) [Compound T78] | 0
Cc1cc(Br)ccc1-c1nc(C2=C(OC(=O)C(C)(C)C)[C@@H]3CC[C@@H](C3)C2=O)c(C)s1 [Compound P14] | 0
Cc1sc(-c2ccccc2)nc1C1C(=O)[C@@H]2CC[C@@H](C2)C1=O (stereo partly shown) [Compound T56] | 0

What follows are compounds tested on Avena fatua (AVEFA) (assay: Example B post-emergence herbicidal activity). Conditions: 312 h, rate 250 g/ha, evaluated after 13 days, read-out: Post-emergence activity AVEFA (100=total damage to plant; 0=no damage to plant).
Assay type: in vivo
How it was run: as §4

Structure (SMILES) | pest or weed control at 250 g/ha [%]
CCc1sc(-c2ccc(Br)cc2F)nc1C1C(=O)[C@@H]2CC[C@@H](C2)C1=O (stereo partly shown) [Compound T33] | 100
C=Cc1ccc(-c2nc(C3C(=O)[C@@H]4CC[C@@H](C4)C3=O)c(C)s2)cc1 (stereo partly shown) [Compound T78] | 0
Cc1cc(Br)ccc1-c1nc(C2=C(OC(=O)C(C)(C)C)[C@@H]3CC[C@@H](C3)C2=O)c(C)s1 [Compound P14] | 90
Cc1sc(-c2ccccc2)nc1C1C(=O)[C@@H]2CC[C@@H](C2)C1=O (stereo partly shown) [Compound T56] | 0

The compounds below were run on Echinochloa crus-galli (ECHCG) (assay: Example B post-emergence herbicidal activity). Conditions: 312 h, rate 250 g/ha, evaluated after 13 days, read-out: Post-emergence activity ECHCG (100=total damage to plant; 0=no damage to plant).
Assay type: in vivo
How it was run: as §4

Structure (SMILES) | pest or weed control at 250 g/ha [%]
CCc1sc(-c2ccc(Br)cc2F)nc1C1C(=O)[C@@H]2CC[C@@H](C2)C1=O (stereo partly shown) [Compound T33] | 100
C=Cc1ccc(-c2nc(C3C(=O)[C@@H]4CC[C@@H](C4)C3=O)c(C)s2)cc1 (stereo partly shown) [Compound T78] | 70
Cc1cc(Br)ccc1-c1nc(C2=C(OC(=O)C(C)(C)C)[C@@H]3CC[C@@H](C3)C2=O)c(C)s1 [Compound P14] | 100
Cc1sc(-c2ccccc2)nc1C1C(=O)[C@@H]2CC[C@@H](C2)C1=O (stereo partly shown) [Compound T56] | 60

Each compound was assayed on Setaria faberi (SETFA) (assay: Example B post-emergence herbicidal activity). Conditions: 312 h, rate 250 g/ha, evaluated after 13 days, read-out: Post-emergence activity SETFA (100=total damage to plant; 0=no damage to plant).
Assay type: in vivo
How it was run: as §4

Structure (SMILES) | pest or weed control at 250 g/ha [%]
CCc1sc(-c2ccc(Br)cc2F)nc1C1C(=O)[C@@H]2CC[C@@H](C2)C1=O (stereo partly shown) [Compound T33] | 100
C=Cc1ccc(-c2nc(C3C(=O)[C@@H]4CC[C@@H](C4)C3=O)c(C)s2)cc1 (stereo partly shown) [Compound T78] | 80
Cc1cc(Br)ccc1-c1nc(C2=C(OC(=O)C(C)(C)C)[C@@H]3CC[C@@H](C3)C2=O)c(C)s1 [Compound P14] | 100
Cc1sc(-c2ccccc2)nc1C1C(=O)[C@@H]2CC[C@@H](C2)C1=O (stereo partly shown) [Compound T56] | 70
